In article PMC7375240, “Covalent Inhibitors Allosterically Block the Activation of Rho Family Proteins and Suppress Cancer Cell Invasion” (Advanced Science, 2020):

Assays:
Cdc42 = target: T1, Cdc42 (Homo sapiens, UniProt P60953); experiment: pull-down of Cdc42 with its GEF; format: binding; settings: Cdc42-GEF interaction (GEF probably human intersectin1 […]-1571), pH […]
T1 construct: full length, His6-tagged (pET28a), E. coli BL21(DE3)

Rac1 = target: T2, Rac1 (Homo sapiens, UniProt P63000); experiment: pull-down of Rac1 with its GEF; format: binding; settings: Rac1-GEF interaction (GEF probably murine Tiam1 […]-1406), pH […]
T2 construct: full length, His6-tagged (pET28a), E. coli BL21(DE3)

T1 sequence (P60953 whole entry): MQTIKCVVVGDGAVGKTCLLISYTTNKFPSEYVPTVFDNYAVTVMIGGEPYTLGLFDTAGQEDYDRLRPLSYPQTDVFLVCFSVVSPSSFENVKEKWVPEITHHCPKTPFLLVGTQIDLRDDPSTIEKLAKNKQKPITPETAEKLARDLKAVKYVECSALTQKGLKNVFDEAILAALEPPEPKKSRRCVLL

SMILES: C=CCOC(=O)C1=CS(=O)(=O)c2ccccc21 [DC-RC-063, DC-Rhoin]
- pull-down of Cdc42 with its GEF (Cdc42): selectively inhibited the interactions between Rho family proteins (RhoA, Cdc42, and Rac1)
- pull-down of Rac1 with its GEF (Rac1): selectively inhibited the interactions between Rho family proteins (RhoA, Cdc42, and Rac1)
